Measurements taken from ChEMBL document CHEMBL6153147 (J Med Chem, 2025).
Active and inactive are the calls of the source. The rule behind the calls is not given here.

Columns and labels:
[1] = MRT (0 to t) in C57BL/6 mouse at 1 mg/kg, iv measured for 0.5 to 12 htr by LC-MS/MS analysis; type: ADME, organism-based; settings: in vivo, time 0.5-12 hrs
Homo sapiens = organism: Homo sapiens; assay: Inhibition of human ABL assessed as residual activity at 10 uM by kinome selectivity profiling analysis relative to control
[2] = Effect on F-actin cytoskeleton in HEK293T cells at 10 uM incubated for 24 hrs by immunofluorescence based analysis; type: toxicity, cell-based; settings: human, hek-293t
[3] = Acute toxicity in mouse assessed as damage in liver at 500 mg/kg, IG qd treated for 7 days by H and E staining based analysis; type: organism-based; settings: in vivo, po, 168 h, time 7 day
[4] = Cytotoxicity against HEK293T cells assessed as cell viability at 30 uM by CCK8 assay relative to control; type: toxicity, cell-based, HEK-293T; settings: human, read-out: Activity
[5] = target: Serine/threonine-protein kinase PLK4 (Homo sapiens) (UniProt O00444); assay: Inhibition of human PLK4 assessed as residual activity at 10 uM by kinome selectivity profiling analysis
Chain of Serine/threonine-protein kinase PLK4 (Homo sapiens) (O00444 whole entry): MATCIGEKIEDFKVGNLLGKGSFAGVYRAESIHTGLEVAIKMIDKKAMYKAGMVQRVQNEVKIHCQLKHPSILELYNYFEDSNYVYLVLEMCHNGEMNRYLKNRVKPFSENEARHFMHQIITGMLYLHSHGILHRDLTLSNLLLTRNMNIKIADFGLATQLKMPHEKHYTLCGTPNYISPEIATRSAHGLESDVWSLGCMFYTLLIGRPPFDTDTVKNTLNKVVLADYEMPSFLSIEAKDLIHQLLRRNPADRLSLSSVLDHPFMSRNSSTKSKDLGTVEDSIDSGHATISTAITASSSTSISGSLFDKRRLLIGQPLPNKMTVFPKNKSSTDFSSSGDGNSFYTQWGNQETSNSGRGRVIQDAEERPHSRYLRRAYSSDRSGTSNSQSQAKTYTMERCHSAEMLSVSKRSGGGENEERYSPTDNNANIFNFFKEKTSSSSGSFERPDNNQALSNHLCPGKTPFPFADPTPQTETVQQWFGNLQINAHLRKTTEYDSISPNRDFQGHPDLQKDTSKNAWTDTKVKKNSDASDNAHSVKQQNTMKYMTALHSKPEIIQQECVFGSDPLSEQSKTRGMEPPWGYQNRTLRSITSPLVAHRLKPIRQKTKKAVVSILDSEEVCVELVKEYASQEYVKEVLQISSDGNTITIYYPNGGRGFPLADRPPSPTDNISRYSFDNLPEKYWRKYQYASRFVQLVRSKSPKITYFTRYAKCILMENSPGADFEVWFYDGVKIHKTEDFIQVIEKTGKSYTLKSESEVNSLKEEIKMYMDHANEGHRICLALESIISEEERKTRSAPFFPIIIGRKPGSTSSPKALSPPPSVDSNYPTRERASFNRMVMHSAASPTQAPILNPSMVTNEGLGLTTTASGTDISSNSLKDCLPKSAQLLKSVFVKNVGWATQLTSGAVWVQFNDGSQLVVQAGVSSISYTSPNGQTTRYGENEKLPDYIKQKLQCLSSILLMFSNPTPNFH

[6] = Toxicity in BALB/c mouse xenografted with human K562 cells assessed as adverse effects at 10 to 20 mg/kg, IG for 11 days treated on every 3 to 4 days; type: organism-based; settings: in vivo, po, 264 h, dose 10-20 mg/kg, time 11 day
[7] = Acute hematopoietic toxicity in mouse assessed as effect on white blood cells at 500 mg/kg, IG qd treated for 7 days; type: organism-based; settings: in vivo, po, 168 h, time 7 day
[8] = AUC (0 to infinity) in C57BL/6 mouse at 1 mg/kg, iv measured for 0.5 to 12 htr by LC-MS/MS analysis; type: ADME, organism-based; settings: in vivo, time 0.5-12 hrs
[9] = Metabolic stability in dog liver microsomes assessed as half life preincubated for 5 mins followed by NADPH addition by LC-MS/MS analysis; type: ADME, Canis lupus familiaris, Microsome
[10] = Metabolic stability in human liver microsomes assessed as half life preincubated for 5 mins followed by NADPH addition by LC-MS/MS analysis; type: ADME, Microsome
Cytochrome P450 2D6 = Cytochrome P450 2D6 (Homo sapiens, UniProt P10635); assay: Inhibition of CYP2D6 in human liver microsomes using dextromethorphan as substrate preincubated with compound followed by substrate addition measured after 10 mins in presence of NADPH by LC-MS/MS analysis; type: ADME, Microsome
Chain of Cytochrome P450 2D6 (P10635 whole entry): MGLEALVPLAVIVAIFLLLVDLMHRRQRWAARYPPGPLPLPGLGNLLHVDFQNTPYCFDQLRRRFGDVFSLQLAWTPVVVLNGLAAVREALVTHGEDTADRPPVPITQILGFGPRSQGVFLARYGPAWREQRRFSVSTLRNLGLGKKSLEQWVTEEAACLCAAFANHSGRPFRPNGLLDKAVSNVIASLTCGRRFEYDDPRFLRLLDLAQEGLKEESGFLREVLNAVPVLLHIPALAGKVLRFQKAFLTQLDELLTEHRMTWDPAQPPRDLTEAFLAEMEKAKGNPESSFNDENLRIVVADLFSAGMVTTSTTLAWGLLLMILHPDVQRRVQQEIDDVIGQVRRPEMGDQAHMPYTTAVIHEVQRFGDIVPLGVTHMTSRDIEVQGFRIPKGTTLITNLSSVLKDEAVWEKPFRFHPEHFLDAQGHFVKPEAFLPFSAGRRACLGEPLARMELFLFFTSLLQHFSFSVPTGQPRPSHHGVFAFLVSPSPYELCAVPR

CC[C@@H]1C(=O)N(C)c2cnc(Nc3cc(N4CCN(C)CC4)cc(Cl)c3OCCCO)nc2N1C1CCCC1
MRT last [1]: 39.6 min | Activity (Homo sapiens): 108% | Activity [2]: Non-toxic | Activity [3]: Non-toxic | viability at 30 µM [4]: 68% | inhibition [5]: inactive | Activity [6]: Non-toxic | Activity [7]: Non-toxic | AUC(0-inf) [8]: 183 ng·h/mL | half-life [9]: 17.3 min | half-life [10]: 30.3 min | IC50 (Cytochrome P450 2D6): > 10 µM
